Where two headings read alike, the source gives them in different places.
How the values were obtained:
ketose 3-epimerase [1] = experiment: Substrate specificity of ketose 3-epimerase (epimer content by HPLC); assay type: biochemical, Rhizobium leguminosarum ATCC14480; details: for Epimer content in the reaction products: 1% (w/v) substrate, pH 8.0, 1 mM MnCl2, 45° C., 17 hours
Experimental: By using the purified preparation of the ketose 3-epimerase, obtained by the method in Experiment 2, the substrate specificity of the enzyme was investigated using various D- or L-ketohexoses and D- or L-ketopentoses as substrates. Substrate solutions were prepared by dissolving D-fructose, D-psicose, D-tagatose, D-sorbose, D-xylulose, D-ribulose, L-fructose, L-psicose, L-tagatose, L-sorbose, L-xylulose, or L-ribulose into 20 mM Tris-HCl buffer (pH 8.0) containing 1 mM MnCl2 to give a final concentration of 1% (w/v), respectively. Then, each substrate solution was further admixed with 2 units/g-substrate or 20 units/g-substrate, on a dry solid basis, as D-psicose 3-epimerase activity of the purified preparation of the ketose 3-epimerase, obtained by the method in Experiment 2; and followed by the enzyme reaction at 45° C. for 17 hours. After stopping the reaction by keeping the reaction mixture at 100° C. for 10 min, the content of epimer formed from each substrate was measured using high performance liquid chromatography (hereinafter, abbreviated as “HPLC”). HPLC was carried out under the following conditions: • Column: MCI GEL CK08EC, commercialized by Mitsubishi Chemical Corporation, Tokyo, Japan; • Eluent: water; • Column temperature: 75° C. • Flow rate: 0.6 ml/min • Detection: RID-10A, a differential refractometer commercialized by Shimadzu Corporation, Kyoto, Japan;

ketose 3-epimerase [2] = assay type: biochemical, Rhizobium leguminosarum ATCC14480
[3] = 1 mM metal salt, substrate solution without 1 mM MnCl2, None = 100, D-fructose determined by HPLC
[4] = 1 mM metal salt, substrate solution without 1 mM MnCl2, None = 100
[5] = 1 mM, in comparison with the case without metal ions

Structure (SMILES) | Epimer content in the reaction products (ketose 3-epimerase [1]; enzyme 2 units/g-substrate) | Epimer content in the reaction products (ketose 3-epimerase [1]; enzyme 20 units/g-substrate) | Relative activity (ketose 3-epimerase [2]; [4]) | Effect on the ketose 3-epimerase activity (in words) (ketose 3-epimerase [2]; [5]) | also measured
O=C(CO)[C@@H](O)[C@@H](O)CO [L-Ribulose, L-ribulose] | 19.2% | 58.4% |  |  | Action of the ketose 3-epimerase on the substrate (in words) (ketose 3-epimerase [1]): efficiently catalyzed
O=C(CO)[C@H](O)[C@H](O)[C@H](O)CO [D-Psicose, D-psicose] | 39.4% | 74.1% |  |  | Action of the ketose 3-epimerase on the substrate (in words) (ketose 3-epimerase [1]): most efficiently catalyzes; Epimer content in the reaction products (ketose 3-epimerase [1]; enzyme 2 units/g-substrate, listed as D-psicose): about 39%
[Cl][Fe][Cl] [FeCl2] |  |  |  |  | Relative activity (ketose 3-epimerase [2]; [3]): 67%
[Cl-].[Cl-].[Zn+2] [ZnCl2] |  |  | 13% | remarkable inhibited | 
O=C(CO)[C@H](O)[C@@H](O)[C@H](O)CO [D-Sorbose, D-sorbose] | 0% | 0.1% |  |  | Action of the ketose 3-epimerase on the substrate (in words) (ketose 3-epimerase [1]): slightly catalyzed
O=C(CO)[C@H](O)[C@H](O)CO [D-Ribulose, D-ribulose] | 17.1% | 43.4% |  |  | Action of the ketose 3-epimerase on the substrate (in words) (ketose 3-epimerase [1]): efficiently catalyzed
[Cl][Ni][Cl] [NiCl2] |  |  | 64% | slightly inhibited | 
O=C(O)CN(CCN(CC(=O)O)CC(=O)O)CC(=O)O [EDTA] |  |  |  |  | Effect on the ketose 3-epimerase activity (in words) (ketose 3-epimerase [2]): not inhibited; Relative activity (ketose 3-epimerase [2]): 97%
O=C(CO)[C@@H](O)[C@@H](O)[C@H](O)CO [D-Tagatose, D-tagatose] | 0.6% | 5.3% |  |  | Action of the ketose 3-epimerase on the substrate (in words) (ketose 3-epimerase [1]): slightly catalyzed
[Ba+2].[Cl-].[Cl-] [BaCl2] |  |  | 96% |  | 
[Cl][Al]([Cl])[Cl] [AlCl3] |  |  | 86% |  | 
[Cl][Pb][Cl] [PbCl2] |  |  | 69% | slightly inhibited | 
O=C(CO)[C@H](O)[C@H](O)[C@@H](O)CO [L-Tagatose, L-tagatose] | 3.2% | 26.7% |  |  | 
[Cl][Fe]([Cl])[Cl] [FeCl3] |  |  |  |  | Relative activity (ketose 3-epimerase [2]; [3]): 64%
[Cl][Sn][Cl] [SnCl2] |  |  | 114% | slightly activated | 
O=C(CO)[C@@H](O)[C@@H](O)[C@@H](O)CO [L-Psicose, L-psicose] | 1.6% | 11.3% |  |  | 
[Cl-].[Cl-].[Sr+2] [SrCl2] |  |  | 103% | not activated | 
[Ca+2].[Cl-].[Cl-] [CaCl2] |  |  | 89% |  | 
[Cl][Cu][Cl] [CuCl2] |  |  | 60% | slightly inhibited | 
O=C(CO)[C@H](O)[C@@H](O)[C@@H](O)CO [L-Fructose, L-fructose] | 0% | 1.4% |  |  | 
[Cl][Hg][Cl] [HgCl2, mercury chloride] |  |  |  | remarkable inhibited | Relative activity (ketose 3-epimerase [2]; [3]): 35%
O=C(CO)[C@@H](O)[C@H](O)[C@@H](O)CO [L-Sorbose, L-sorbose] | 0% | 6.2% |  |  | 
[Cl][Mn][Cl] [MnCl2] |  |  | 283% | Activated | Relative activity (ketose 3-epimerase [2]; 1 mM metal salt, substrate solution without 1 mM MnCl2, None = 100, listed as Mn^2+): about 280%
[Cl-].[Cl-].[Mg+2] [MgCl2] |  |  | 141% | Activated | Relative activity (ketose 3-epimerase [2]; 1 mM metal salt, substrate solution without 1 mM MnCl2, None = 100, listed as Mg^2+): about 140%
O=C(CO)[C@@H](O)[C@H](O)CO [D-Xylulose, D-xylulose] | 2.3% | 19.6% |  |  | Action of the ketose 3-epimerase on the substrate (in words) (ketose 3-epimerase [1]): efficiently catalyzed
O=C(CO)[C@H](O)[C@@H](O)CO [L-Xylulose, L-xylulose] | 1.6% | 10.3% |  |  | Action of the ketose 3-epimerase on the substrate (in words) (ketose 3-epimerase [1]): efficiently catalyzed
O=C(CO)[C@@H](O)[C@H](O)[C@H](O)CO [D-Fructose, D-fructose] | 17.7% | 25.8% |  |  | Action of the ketose 3-epimerase on the substrate (in words) (ketose 3-epimerase [1]): most efficiently catalyzes; Epimer content in the reaction products (ketose 3-epimerase [1]; enzyme 2 units/g-substrate, listed as D-fructose): about 18%
[Cl-].[Cl-].[Co+2] [CoCl2] |  |  |  |  | Effect on the ketose 3-epimerase activity (in words) (ketose 3-epimerase [2]): not activated; Relative activity (ketose 3-epimerase [2]): 101%

— patent publication US20110275138A1, “KETOSE 3-EPIMERASE, ITS PREPARATION AND USES” (KABUSHIKI KAISHA HAYASHIBARA SEIBUTSU KAGAKU KENKYUJO, priority 2005, published 2011)
